Assays:
[1] = Evaluation of gallstone dissolution, cholesterol stone; design: species or system human; details: 37° C., 4 hours; for Dissolution ability (%) Cholesterol stone: 0.5 g gallstone + 0.5 ml agent (1 g compound in 1 ml DMSO), (weight after dissolution)/(weight before dissolution)×100
Procedure: (§1) In order to evaluate the cholesterol stone and pigmented stone dissolution abilities of each of Examples 1 to 3 and Comparative Examples 1 and 2 prepared according to the Preparation Example above, cholesterol stones and pigmented stones removed during surgery of gallstone patients were obtained, thereby preparing gallstones. 0.5 g of each of the prepared gallstones was placed in an Eppendorf tube, and then 0.5 ml of each of the gallstone-dissolving agents of Examples 1 to 3 and Comparative Examples 1 and 2 was added to the Eppendorf tube containing the gallstone. Each tube was left to stand at 37° C. for 4 hours. Thereafter, the gallstone dissolution ability of each compound was evaluated by measuring the mass of the gallstones before and after dissolving the gallstone by treatment with each compound. The results of evaluating the abilities to dissolve cholesterol stones and pigmented stones are shown in Tables 2 and 3 below, respectively, and photographs before and after dissolving the gallstones are comparatively shown in FIGS. 1 and 2, respectively.
(§2) The gallstone dissolution ability was calculated using the following equation: Gallstone dissolution ability (%)=(weight of gallstone after dissolution)/(weight of gallstone before dissolution)×100

[2] = Evaluation of gallstone dissolution, pigmented stone; design: species or system human; details: 0.5 g gallstone + 0.5 ml agent (1 g compound in 1 ml DMSO), 37° C., 4 hours; (weight after dissolution)/(weight before dissolution)×100
Procedure: as §1, §2

## COC(C)(C)C [Comparative Example 1, Methyl tert-butyl ether, reference compound]
[1]
  Dissolution ability (%) Cholesterol stone: 24.07%

## CCOC(=O)CC [Comparative Example 2, ethyl propionate, reference compound]
[1]
  Dissolution ability (%) Cholesterol stone: 48.66%

## COc1cccc(C)n1 [Example 1, 2-methoxy-6-methylpyridine]
[1]
  Dissolution ability (%) Cholesterol stone: 14.16%
[2]
  Dissolution ability (%) Pigmented stone: 52.92%

## CC(=O)C1CC1 [Example 3, 1-cyclopropylethanone]
[1]
  Dissolution ability (%) Cholesterol stone: 28.57%
[2]
  Dissolution ability (%) Pigmented stone: 60.00%

## COC(=O)c1cccc(C)c1 [Example 2, methyl 3-methylbenzoate]
[1]
  Dissolution ability (%) Cholesterol stone: 10.00%
[1]; Table 2 and FIG. 1
  ability to dissolve the cholesterol stone (in words): excellent ability to dissolve the cholesterol stone
[2]
  Dissolution ability (%) Pigmented stone: 58.33%

Reference: patent US11400056B2, “Pharmaceutical composition comprising gallstone solubilizer for treatment of gallbladder disease” (SurgiNex Co., Ltd., priority 2016, dated 2022)
